# In patent publication US20100120700A1, “METHODS AND COMPOSITIONS FOR TREATING CERVICAL CANCER” (priority 2000, published 2010):
# “And” between values parts separate entries of the source, which are not always exact repeats. Identical values can stand only once.
# Columns and labels:
# Test in all cases: G assay PDZ-PL binding
# Conditions in all cases: peptide 10 uM, protein 5
# [1] = biological target: T1, DLG2 #290.1 domain 2 (Homo sapiens, UniProt Q15700, K278N)
# T1 construct: made in house; host or cells: E. coli (DH5alpha, BL21 or JM109)
# Experimental: (§1) (1) A PDZ-domain polypeptide is bound to a surface, e.g. a protein binding surface. In a preferred embodiment, a GST/PDZ fusion protein containing one or more PDZ domains is bound to a polystyrene 96-well plate. […] In one embodiment, the GST/PDZ fusion protein is bound via an anti-GST antibody that is coated onto the 96-well plate. Adequate binding to the plate can be achieved when: • a. 100 uL per well of 5 ug/mL goat anti-GST polyclonal antibody (Pierce) in PBS is added to a polystyrene 96-well plate (e.g., Num Polysorb) at 4° C. for 12 hours. • b. The plate is blocked by addition of 200 uL per well of PBS/BSA for 2 hours at 4° C. • c. The plate is washed 3 times with PBS. • d. 50 uL per well of 5 ug/mL GST/PDZ fusion protein) or, as a negative control, GST polypeptide alone (i.e. not a fusion protein) in PBS/BSA is added to the plate for 2 hours at 4° C. • e. The plate is again washed 3 times with PBS.
# (§2) (2) Biotinylated PL peptides are allowed to react with the surface by addition of 50 uL per well of 20 uM solution of the biotinylated peptide in PBS/BSA for 10 minutes at 4° C., followed by an additional 20 minute incubation at 25° C.
# (§3) (3) The binding of the biotinylated peptide to the GST/PDZ fusion protein surface can be detected using a variety of methods and detectors known to one of skill in the art. In one embodiment, 100 uL per well of 0.5 ug/mL streptavidin-horse radish peroxidase (HRP) conjugate dissolved in BSA/PBS is added and allowed to react for 20 minutes at 4° C. The plate is then washed 5 times with 50 mM Tris pH 8.0 containing 0.2% Tween 20, and developed by addition of 100 uL per well of HRP-substrate solution (TMB, Dako) for 20 minutes at room temperature (RT). The reaction of the HRP and its substrate is terminated by addition of 100 uL per well of 1M sulfuric acid, and the absorbance of each well of the plate is read at 450 nm.
# (§4) (4) Specific binding of a PL peptide and a PDZ domain polypeptide is determined by comparing the signal from the well(s) in which the PL peptide and PDZ domain polypeptide are combined, with the background signal(s). The background signal is the signal found in the negative control(s). Typically a specific or selective reaction will be at least twice background signal, more typically more than 5 times background, and most typically 10 or more times the background signal. In addition, a statistically significant reaction will involve multiple measurements of the reaction with the signal and the background differing by at least two standard errors, more typically four standard errors, and most typically six or more standard errors. Correspondingly, a statistical test (e.g. a T-test) comparing repeated measurements of the signal with-repeated measurements of the background will result in a p-value<0.05, more typically a p-value<0.01, and most typically a p-value<0.001 or less. As noted, in an embodiment of the “G” assay, the signal from binding of a given PL peptide to immobilized (surface bound) GST polypeptide alone is one suitable negative control (sometimes referred to as “B 1”). Because all measurement are done in multiples (i.e. at least duplicate) the arithmetic mean (or, equivalently, average.) of several measurements is used in determining the binding, and the standard error of the mean is used in determining the probable error in the measurement of the binding. The standard error of the mean of N measurements equals the square root of the following: the sum of the squares of the difference between each measurement and the mean, divided by the product of (N) and (N−1). Thus, in one embodiment, specific binding of the PDZ protein to the platebound peptide is determined by comparing the mean signal (“mean S”) and standard error of the signal (“SE”) for a particular PL-PDZ combination with the mean B1. […]
# [2] = biological target: T2, NOS1 domain 1 (Homo sapiens, UniProt P29475)
# T2 construct: made in house; host or cells: E. coli (DH5alpha, BL21 or JM109)
# Experimental: as §1, §2, §3, §4
# [3] = biological target: T3, PDZK1 domain 3 (Homo sapiens, UniProt Q5T2W1)
# T3 construct: made in house; host or cells: E. coli (DH5alpha, BL21 or JM109)
# Experimental: as §1, §2, §3, §4
# [4] = biological target: T4, NeDLG domain 3 (Homo sapiens, UniProt Q92796)
# T4 construct: made in house; host or cells: E. coli (DH5alpha, BL21 or JM109), vector pGEX-3X
# Experimental: as §1, §2, §3, §4
# [5] = biological target: T5, NeDLG domain 1, 2 (Homo sapiens, UniProt Q92796)
# T5 construct: the DNA portion cloned represents the PDZ domains and the cDNA portion located between individual domains; made in house; host or cells: E. coli (DH5alpha, BL21 or JM109)
# Experimental: as §1, §2, §3, §4
# [6] = biological target: T6, ZO-2 domain 2 (Homo sapiens, UniProt Q9UDY2)
# T6 construct: made in house; host or cells: E. coli (DH5alpha, BL21 or JM109)
# Experimental: as §1, §2, §3, §4
# [7] = biological target: T7, novel PDZ gene domain 1 (Homo sapiens, UniProt Q9H5P4)
# T7 construct: made in house; host or cells: E. coli (DH5alpha, BL21 or JM109)
# Experimental: as §1, §2, §3, §4
# [8] = biological target: T8, SITAC-18 domain 2 (Homo sapiens, UniProt Q9H190)
# T8 construct: made in house; host or cells: E. coli (DH5alpha, BL21 or JM109)
# Experimental: as §1, §2, §3, §4
# [9] = biological target: T9, Syntrophin beta 2 domain 1 (Homo sapiens, UniProt Q13425)
# T9 construct: made in house; host or cells: E. coli (DH5alpha, BL21 or JM109)
# Experimental: as §1, §2, §3, §4
# [10] = biological target: T10, KIAA1284 domain 1 (Homo sapiens, UniProt Q9ULD6)
# T10 construct: made in house; host or cells: E. coli (DH5alpha, BL21 or JM109)
# Experimental: as §1, §2, §3, §4
# [11] = biological target: T11, CARD14 domain 1 (Homo sapiens, UniProt Q9BXL6)
# T11 construct: made in house; host or cells: E. coli (DH5alpha, BL21 or JM109)
# Experimental: as §1, §2, §3, §4
# [12] = biological target: T12, Syntrophin gamma 1 domain 1 (Homo sapiens, UniProt Q9NSN8)
# T12 construct: made in house; host or cells: E. coli (DH5alpha, BL21 or JM109), vector pGEX-3X
# Experimental: as §1, §2, §3, §4
# [13] = biological target: T13, PSD95 domain 1, 2, 3 (Homo sapiens, UniProt P78352)
# T13 construct: the DNA portion cloned represents the PDZ domains and the cDNA portion located between individual domains; made in house; host or cells: E. coli (DH5alpha, BL21 or JM109)
# Experimental: as §1, §2, §3, §4
# [14] = biological target: T14, INADL domain 4 (Homo sapiens, UniProt Q8NI35)
# T14 construct: made in house; host or cells: E. coli (DH5alpha, BL21 or JM109)
# Experimental: as §1, §2, §3, §4
# T9 sequence (Q13425 with tags, fused parts or gaps): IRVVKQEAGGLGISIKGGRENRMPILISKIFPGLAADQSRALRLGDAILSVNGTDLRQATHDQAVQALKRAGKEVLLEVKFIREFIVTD
# T12 sequence (Q9NSN8 49-149): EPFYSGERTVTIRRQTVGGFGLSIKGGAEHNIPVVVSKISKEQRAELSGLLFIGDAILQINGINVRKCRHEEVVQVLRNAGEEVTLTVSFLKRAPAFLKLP
# T5 sequence (Q92796 129-315 limits assumed): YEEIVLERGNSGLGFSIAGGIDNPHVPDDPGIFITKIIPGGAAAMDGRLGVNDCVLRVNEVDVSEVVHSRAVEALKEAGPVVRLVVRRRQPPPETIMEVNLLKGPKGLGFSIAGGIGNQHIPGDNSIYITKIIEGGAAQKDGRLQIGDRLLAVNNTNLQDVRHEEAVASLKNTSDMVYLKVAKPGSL
# T13 sequence (P78352 62-395): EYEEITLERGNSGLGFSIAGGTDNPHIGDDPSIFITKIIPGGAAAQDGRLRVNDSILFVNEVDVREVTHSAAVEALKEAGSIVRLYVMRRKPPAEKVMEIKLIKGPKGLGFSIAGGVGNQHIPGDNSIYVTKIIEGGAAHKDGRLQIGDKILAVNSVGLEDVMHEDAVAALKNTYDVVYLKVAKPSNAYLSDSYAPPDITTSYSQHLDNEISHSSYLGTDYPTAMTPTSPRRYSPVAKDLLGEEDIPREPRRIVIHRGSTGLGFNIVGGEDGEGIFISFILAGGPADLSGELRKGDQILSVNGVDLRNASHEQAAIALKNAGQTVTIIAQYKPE
# T1 sequence (Q15700 whole entry, looked up, the tested form differs by isoform, tags, fused parts or gaps, stated change not applied): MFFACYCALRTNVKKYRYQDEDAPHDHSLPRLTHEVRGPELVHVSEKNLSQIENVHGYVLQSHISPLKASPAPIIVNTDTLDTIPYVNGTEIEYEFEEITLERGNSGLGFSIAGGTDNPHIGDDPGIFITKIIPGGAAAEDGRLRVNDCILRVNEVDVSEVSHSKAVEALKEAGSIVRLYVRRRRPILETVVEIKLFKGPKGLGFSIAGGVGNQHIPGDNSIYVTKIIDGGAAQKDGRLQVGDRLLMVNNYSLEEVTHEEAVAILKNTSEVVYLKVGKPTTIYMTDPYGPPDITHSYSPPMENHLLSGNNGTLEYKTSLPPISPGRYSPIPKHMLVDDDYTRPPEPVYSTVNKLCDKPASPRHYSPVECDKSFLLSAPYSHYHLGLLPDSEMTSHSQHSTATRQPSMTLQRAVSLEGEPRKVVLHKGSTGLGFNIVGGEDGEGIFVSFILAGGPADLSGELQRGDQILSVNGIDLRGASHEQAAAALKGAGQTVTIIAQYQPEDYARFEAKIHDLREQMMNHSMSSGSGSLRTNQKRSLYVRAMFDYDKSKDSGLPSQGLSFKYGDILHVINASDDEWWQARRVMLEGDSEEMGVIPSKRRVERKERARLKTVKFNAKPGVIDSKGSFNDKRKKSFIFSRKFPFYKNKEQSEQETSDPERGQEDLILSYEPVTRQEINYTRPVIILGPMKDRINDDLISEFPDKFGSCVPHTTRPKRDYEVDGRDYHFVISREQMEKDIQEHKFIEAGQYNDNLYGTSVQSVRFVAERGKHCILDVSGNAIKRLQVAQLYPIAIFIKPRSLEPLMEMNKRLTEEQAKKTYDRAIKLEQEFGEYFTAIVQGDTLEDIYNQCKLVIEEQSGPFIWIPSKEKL
# T4 sequence (Q92796 with tags, fused parts or gaps): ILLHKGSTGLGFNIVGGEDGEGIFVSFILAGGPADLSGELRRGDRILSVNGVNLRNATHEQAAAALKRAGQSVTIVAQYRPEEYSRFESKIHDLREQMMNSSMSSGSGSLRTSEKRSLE
# T7 sequence (Q9H5P4 with tags, fused parts or gaps): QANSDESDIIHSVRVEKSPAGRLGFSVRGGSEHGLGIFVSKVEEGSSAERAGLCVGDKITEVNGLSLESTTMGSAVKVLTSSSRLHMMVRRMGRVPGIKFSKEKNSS
# T11 sequence (Q9BXL6 565-664): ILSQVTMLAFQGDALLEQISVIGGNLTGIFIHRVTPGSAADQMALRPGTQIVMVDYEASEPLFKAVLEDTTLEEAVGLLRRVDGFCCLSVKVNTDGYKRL
# T6 sequence (Q9UDY2 with tags, fused parts or gaps): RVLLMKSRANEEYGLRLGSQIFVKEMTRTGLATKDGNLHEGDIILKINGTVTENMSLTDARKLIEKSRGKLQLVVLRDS
# T2 sequence (P29475 11-100): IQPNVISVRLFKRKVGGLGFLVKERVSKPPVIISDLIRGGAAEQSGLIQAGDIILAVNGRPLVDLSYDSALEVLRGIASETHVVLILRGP
# T8 sequence (Q9H190 with tags, fused parts or gaps): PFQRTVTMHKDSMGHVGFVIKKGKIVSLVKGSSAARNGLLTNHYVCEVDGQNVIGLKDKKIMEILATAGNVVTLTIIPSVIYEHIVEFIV
# T10 sequence (Q9ULD6 159-271): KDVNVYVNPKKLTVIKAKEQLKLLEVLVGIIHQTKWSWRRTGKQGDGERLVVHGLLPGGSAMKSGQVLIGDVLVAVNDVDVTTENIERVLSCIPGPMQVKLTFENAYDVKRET
# T14 sequence (Q8NI35 with tags, fused parts or gaps): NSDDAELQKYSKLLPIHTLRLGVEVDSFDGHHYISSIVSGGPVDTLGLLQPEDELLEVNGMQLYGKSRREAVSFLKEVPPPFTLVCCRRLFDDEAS
substance,measurement,setting,value
"20 mer peptide corresponding to the C-terminus of HPV16 E6 (PDZ ligand), biotinylated in binding assays; ends SSRTRRETQL (SEQ ID NO: 13) [HPV E6 #16]",Ave OD,[1]; A450 nm,1.784 and 1.439
same,OD S/N,[1]; vs GST only well,9.17 and 13.39
same,Ave OD,[2]; A450 nm,0.4775
same,OD S/N,[2]; vs GST only well,2.88
same,Ave OD,[3]; A450 nm,0.5
same,OD S/N,[3]; vs GST only well,1.92
same,Ave OD,[4]; A450 nm,0.632 and 0.5225
same,OD S/N,[4]; vs GST only well,3.69 and 2.49
same,Ave OD,[5]; A450 nm,3.401 and 3.118
same,OD S/N,[5]; vs GST only well,19.83 and 17.13
same,Ave OD,[6]; A450 nm,0.3565
same,OD S/N,[6]; vs GST only well,2.15
same,Ave OD,[7]; A450 nm,0.5455
same,OD S/N,[7]; vs GST only well,1.89
same,Ave OD,[8]; A450 nm,0.484
same,OD S/N,[8]; vs GST only well,2.46
same,Ave OD,[9]; A450 nm,1.1585 and 1.0325
same,OD S/N,[9]; vs GST only well,5.81 and 5.35
same,Ave OD,[10]; A450 nm,0.473
same,OD S/N,[10]; vs GST only well,2.72
same,Ave OD,[11]; A450 nm,0.342
same,OD S/N,[11]; vs GST only well,1.52
same,Ave OD,[12]; A450 nm,0.3585 and 0.618
same,OD S/N,[12]; vs GST only well,2.00 and 3.08
same,Ave OD,[13]; A450 nm,3.523 and 3.866
same,OD S/N,[13]; vs GST only well,22.58 and 19.67
same,Ave OD,[14]; A450 nm,0.357
same,OD S/N,[14]; vs GST only well,2.15
